{"source": "patent US20080015147A1", "about": "“Method for inhibiting neuronal cell death” (priority 2006, published 2008)", "format_in_all_cases": "cell-based, mouse", "key": {"caspase 8": {"test_system": "caspase 8", "test": "Caspase 8 colorimetric assay", "experimental": "(§1) Caspase 8 and 3 colorimetric assays were performed on the N38 cells at all pH conditions. The assay was based on the detection of the chromophore pNA after cleavage from the labeled substrate IETD-pNA and DEVD-pNA for caspase 8 and 3, respectively. Comparison of the pNA absorbance from the suspected apoptotic sample was compared to the uninduced neutral pH sample. Caspase 8 and 3 were analysed using the Caspase-3 Colorimetric Activity Assay (Chemicon, Temecula USA) and Caspase-8 Colorimetric Activity Assay (Chemicon, Temecula USA). The cells from each pH treatment described previously at 24 and 48 hrs were removed using a cell scraper and centrifuged at 1500 rpm for 10 minutes. The cells were resuspended in 350 μl of chilled cell lysis buffer containing 500 μl PBS, 5 μl 1% Triton ×100 (Sigma, St. Louis), 25 μl proteinase inhibitor cocktail set III (VWR, Mississauga), 0.5 μM dithiothreitol (DTT) (Sigma, St. Louis) and 2.5 μl phenylmethylsulphonylfluoride (PMSF) diluted in 1 mL of methanol (EM Science, Gibbstown), then incubated on ice for 10 min and centrifuged for 5 minutes at 10,000 rpm. The supernatant, consisting of cytosolic extracts, was transferred to a new tube and a bicinchoninic acid (BCA) protein assay (Pierce, Rockford) was conducted to determine total protein concentration. The absorbance of each sample was measured on a SPECTRAmax Microplate spectrophotometer at 405 nm after an incubation period of 2 hours at 37° C. Changes in caspase 3 activity were determined by comparing the absorbance reading from the induced sample with the level of the uninduced control. Background readings from the buffer were subtracted from the reading of both the induced (pH 6.8, 8.0, 8.4) and uninduced (pH 7.4) samples before calculating changes in caspase 3 activity. The same was done for the detection of caspase 8. As a control, N38 cells were cultured with pH 7.4 DMEM and incubated for 4 days, apoptosis was then induced using 10 μM/ml etoposide and lysed according to the above protocol and used a control for all subsequent caspase 3 detection. All assays were performed with 4 replications."}, "catalase [1]": {"test_system": "catalase", "test": "Catalase gene expression by real-time PCR", "settings": "p<0.001"}, "PARP": {"test_system": "PARP", "test": "PARP cleavage by immunoblot", "settings": "48 hour; all pH treatments", "experimental": "Using the same protocol, changes in PARP expression were determined at 48 hrs. The membrane was incubated with PARP primary antibody (Cell Signaling Technology, Beverly) at a titre of 1:100. The membranes were washed 3 times for 5 min with 10 ml of PBST followed by membrane incubation with anti-rabbit horseradish peroxidase (HRP)-conjugated secondary antibody (Amersham, Baie d'Urfé) at 1:3000 in 6 ml of PBST-milk with gentle agitation for 1 hr at RT. The membranes were then washed 3 times for 5 min with 10 ml of PBST then exposed to Kodak X-OMAT Blue scientific imaging film (Perkin Elmer Canada Inc, Vaudreuil-Dorion) for 30 min. Total optical density of the blots, were quantified using LabWorks 4.0 Image Acquisition and Analysis Software from Ultra-Violet Products Ltd. (UVP)."}, "cleaved caspase 3": {"test_system": "cleaved caspase 3", "test": "Caspase 3 cleavage by immunoblot", "settings": "48 hr; any pH condition for TCAP-1", "experimental": "Detection of caspase 3 cleavage was determined at 48 hrs. The samples at each pH and control (see above) were lysed using total protein isolation lysis buffer (described above). An aliquot of 25 μl of each sample was combined with 25 μl of 2×20% sodium dodecyl sulphate (SDS) sample buffer and loaded onto a 4-10% HCL-Tris pre cast polyacrylamide gel (BioRad, Mississauga). The gel was run at 200 v for 35 min and proteins were electrotransfered to a Hybond-C nitrocellulose membrane (Amersham, Baie d'Urfé) for 75 min at 100 v. After transfer, the membrane was washed with 10 ml of PBS with 0.05% Tween 20 (PBST) for 5 min at room temperature (RT) and the membrane was incubated in 10 ml of PBST-milk for one hour at RT followed by 3 times for 5 min washes with 10 ml of PBST. The membrane was then incubated with cleaved caspase 3 primary antibody (Cell Signaling Technology, Beverly) at a titre of 1:500 in 6 ml of PBST-milk with gentle agitation overnight at 4° C. The membranes were washed 3 times for 5 min with 10 ml of PBST followed by membrane incubation with anti-rabbit horseradish peroxidase (HRP)-conjugated secondary antibody (Amersham, Baie d'Urfé) at 1:3000 in 6 ml of PBST-milk with gentle agitation for 1 hr at RT. […]"}, "caspase 3": {"test_system": "caspase 3", "test": "Caspase 3 colorimetric assay", "experimental": "as §1"}, "N38 cells": {"test_system": "N38 cells", "test": "Cell viability by Trypan Blue uptake", "settings": "48 hrs", "experimental": "The proportion of viable cells in the samples was determined by measuring Trypan Blue uptake. At 48 hrs, the cells from the four pH treatments were suspended using 1 ml of Trypsin EDTA, centrifuged at 1600 RPM for 4 min and resuspended in 1 ml of BSS (Hank's Balanced Salt Solution) (Sigma, St. Louis). An aliquot of 0.5 ml of 0.04% Trypan Blue solution was transferred to a 1.5 ml tube, […] of BSS was added to 0.2 ml of the cell suspension; the samples were mixed thoroughly and the cell suspension-Trypan Blue mixture was allowed to stand for 10 minutes and then counted on a hemocytometer. Separate counts were kept for both viable and non viable cells."}, "catalase [2]": {"test_system": "catalase", "test": "Catalase assay on pH treated cells", "experimental": "A catalase assay was performed on the pH treated cells in order to determine whether TCAP-1 was conferring survivability to the cells via upregulation of catalase and thus increasing H2O 2 breakdown into H2O and O2 (FIG. 9B). […] Bovine liver was also assayed as a positive control."}}, "data": [{"substance": "teneurin C-terminus associated peptide [TCAP-1]", "values": [{"measurement": "relative level of caspase 8 activity, of the etoposide-induced increase", "setting": "caspase 8; pH 7.4", "result": "about 70%"}, {"measurement": "caspase 8 activity vs vehicle", "setting": "caspase 8; pH 7.4, P<0.001", "result": "increased caspase 8 activity"}, {"measurement": "caspase 8 activity vs vehicle", "setting": "caspase 8; pH 8.0", "result": "no significant differences in caspase 8 and 3 activity"}, {"measurement": "caspase 8 activity vs vehicle", "setting": "caspase 8; pH 8.4", "result": "no significant differences in caspase 8 and 3 activity"}, {"measurement": "catalase mRNA induction", "setting": "catalase [1]; pH 8.0", "result": 3, "unit": "fold"}, {"measurement": "catalase mRNA induction", "setting": "catalase [1]; pH 8.4", "result": 5, "unit": "fold"}, {"measurement": "PARP on western blot, vehicle vs TCAP", "setting": "PARP", "result": "no significant differences between vehicle and TCAP treated samples"}, {"measurement": "caspase 3 cleavage product (17/19 kDa) on western blot", "setting": "cleaved caspase 3", "result": "could not be observed"}, {"measurement": "relative level of caspase 3 activity, of the etoposide-induced increase", "setting": "caspase 3; pH 6.8", "result": "~40", "unit": "%"}, {"measurement": "caspase 3 activity vs vehicle", "setting": "caspase 3; pH 6.8, P<0.05", "result": "increased caspase 3 activity"}, {"measurement": "caspase 3 activity vs vehicle", "setting": "caspase 3; pH 8.0", "result": "no significant differences in caspase 8 and 3 activity"}, {"measurement": "caspase 3 activity vs vehicle", "setting": "caspase 3; pH 8.4", "result": "no significant differences in caspase 8 and 3 activity"}, {"measurement": "cell viability by trypan blue uptake", "setting": "N38 cells; pH 6.8", "result": "significant decrease in the number of cells that took up the trypan blue stain"}, {"measurement": "cell viability by trypan blue uptake", "setting": "N38 cells; pH 6.8, listed as TCAP", "result": "increased the number of viable cells"}, {"measurement": "cell viability by trypan blue uptake", "setting": "N38 cells; pH 8.0", "result": "significant decrease in the number of cells that took up the trypan blue stain"}, {"measurement": "cell viability by trypan blue uptake", "setting": "N38 cells; pH 8.0, listed as TCAP", "result": "increased the number of viable cells"}, {"measurement": "cell viability by trypan blue uptake", "setting": "N38 cells; pH 8.4", "result": "significant decrease in the number of cells that took up the trypan blue stain"}, {"measurement": "cell viability by trypan blue uptake", "setting": "N38 cells; pH 8.4, listed as TCAP", "result": "increased the number of viable cells"}, {"measurement": "catalase levels vs vehicle", "setting": "catalase [2]; pH 6.8", "result": "no significant effects"}, {"measurement": "catalase levels vs vehicle", "setting": "catalase [2]; pH 7.4", "result": "no significant effects"}, {"measurement": "catalase levels vs vehicle", "setting": "catalase [2]; pH 8.0, p<0.01", "result": "significant TCAP-1 effect"}, {"measurement": "catalase levels vs vehicle", "setting": "catalase [2]; pH 8.4, p<0.001", "result": "significantly increased catalase levels"}]}]}
